In brackets after ≈: the same amount, converted by molar mass.
Tested on: Artemia salina
Assay: Toxicity in Artemia salina assessed as inhibition of egg hatching after 48 hrs
Assay type: organism-based

In order of falling IC50:
1. COc1cc(O)c2c(=O)c(O[C@H]3O[C@H](C)[C@@H](O)[C@H](O)[C@@H]3OC(=O)c3cc(O)c(O)c(O)c3)c(-c3cc(O)c(O)c(O)c3)oc2c1  89 mg/L (≈ 141 µM)
2. C[C@H]1O[C@H](Oc2c(-c3cc(O)c(O)c(O)c3)oc3cc(O)cc(O)c3c2=O)[C@@H](OC(=O)c2cc(O)c(O)c(O)c2)[C@@H](O)[C@@H]1O  75 mg/L (≈ 122 µM)
3. C[C@H]1O[C@H](Oc2c(-c3cc(O)c(O)c(O)c3)oc3cc(O)cc(O)c3c2=O)[C@@H](O)[C@@H](OC(=O)c2cc(O)c(O)c(O)c2)[C@@H]1O  64 mg/L (≈ 104 µM)
4. COc1cc(O)c2c(=O)c(O[C@H]3O[C@H](C)[C@@H](O)[C@H](OC(=O)c4cc(O)c(O)c(O)c4)[C@@H]3O)c(-c3cc(O)c(O)c(O)c3)oc2c1  50 mg/L (≈ 79.3 µM)
